Measured values as given in the supplement of paper PMC8967900.

Tests used:
Test in all cases: selective drug sensitivity score (sDSS, relative to normal bone marrow) (sDSS (score)); higher = more potent and effective on the cell line relative to normal bone marrow cells
Settings in all cases: 72 h
[1] = tested on: COG-LL-332h
[2] = tested on: ALL-SIL
[3] = tested on: REH
[4] = tested on: PEER
[5] = tested on: TANOUE
[6] = tested on: KASUMI-10
[7] = tested on: MHH-CALL-2
[8] = tested on: COG-LL-394h
[9] = tested on: MOLT-14
[10] = tested on: 380
[11] = tested on: MOLT-16
[12] = tested on: RCH-ACV
[13] = tested on: TMD5
[14] = tested on: CCRF-CEM
[15] = tested on: COG-LL-319h
[16] = tested on: MHH-CALL-3
[17] = tested on: P30-OHKUBO
[18] = tested on: SEM cells
[19] = tested on: MN-60
[20] = tested on: MHH-CALL-4
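Note: ALL cell lines in 384-well plates, five doses spanning 10,000-fold, each plate scaled between vehicle and 100 µmol/L benzalkonium chloride controls, sDSS an adapted area-under-curve metric.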

Row | SMILES | selective drug sensitivity score [1] | selective drug sensitivity score [2] | selective drug sensitivity score [3] | selective drug sensitivity score [4] | selective drug sensitivity score [5] | selective drug sensitivity score [6] | selective drug sensitivity score [7] | selective drug sensitivity score [8] | selective drug sensitivity score [9] | selective drug sensitivity score [10] | selective drug sensitivity score [11] | selective drug sensitivity score [12] | selective drug sensitivity score [13] | selective drug sensitivity score [14] | selective drug sensitivity score [15] | selective drug sensitivity score [16] | selective drug sensitivity score [17] | selective drug sensitivity score [18] | selective drug sensitivity score [19] | selective drug sensitivity score [20]
1 | Nc1ccccc1NC(=O)c1ccc(CNC(=O)OCc2cccnc2)cc1 [Entinostat] (top concentration 10000 nM) | -0.62 | 12.1 | 2.68 | 6.88 | -8.52 | 3.68 | 8.98 | -3.72 | 7.98 | 13.1 | 6.58 | 9.98 | 5.38 | 3.78 | 12.7 | 11.4 | 5.68 | 12.9 | 1.68 | 8.88
2 | C#Cc1cccc(Nc2ncnc3cc(OCCOC)c(OCCOC)cc23)c1 [Erlotinib] (top concentration 10000 nM) | 1.96 | 5.36 | -0.84 | 5.16 | -1.24 | 4.06 | 1.76 | 2.66 | 4.06 | 2.36 | 4.36 | 4.26 | -0.34 | 2.06 | 16.2 | 1.66 | 2.96 | 1.86 | 0.96 | -1.24
3 | O=C(Nc1nc2cccc(-c3ccc(CN4CCS(=O)(=O)CC4)cc3)n2n1)C1CC1 [Filgotinib] (top concentration 10000 nM) | -1.84 | -0.24 | 1.16 | -2.04 | -5.34 | 1.46 | 5.36 | -3.34 | -0.44 | 11.7 | 4.86 | 1.56 | 0.16 | -1.34 | -3.74 | 1.26 | 2.56 | 1.96 | -2.64 | 2.86
4 | C[C@H]1C=C2C(=O)O[C@H]3CC[C@@H](C1)[C@@]23O [Galiellalactone] (top concentration 25000 nM) | 6.06 | 5.56 | 3.66 | 1.66 | -0.94 | 4.56 | 4.16 | -0.74 | 5.26 | 13 | 3.36 | 7.76 | 1.46 | 5.86 | 7.46 | 11.4 | 5.26 | 3.56 | 2.46 | -3.84
5 | CN(C)C1CCN(C(=O)c2ccc(NC(=O)Nc3ccc(-c4nc(N5CCOCC5)nc(N5CCOCC5)n4)cc3)cc2)CC1 [Gedatolisib] (top concentration 1000 nM) | 4.96 | 2.66 | 9.16 | 4.06 | -1.04 | 1.36 | 3.26 | 0.56 | -3.24 | 14.8 | 15.9 | 17.5 | 0.66 | 7.26 | -0.04 | -1.64 | 15.2 | 1.16 | 6.26 | 3.66
6 | Nc1ccn([C@@H]2O[C@H](CO)[C@@H](O)C2(F)F)c(=O)n1 [Gemcitabine] (top concentration 1000 nM) | 17.8 | 12.1 | 13 | 5.06 | -7.34 | 16.8 | 21.6 | -8.04 | 14.3 | 23.5 | 21.5 | 18.5 | -7.84 | 14.5 | 20.5 | 13.4 | 18 | 24.9 | -0.34 | 12.9
7 | COc1cc2c(cc1-c1c(C)noc1C)ncc1[nH]c(=O)n([C@H](C)c3ccccn3)c12 [I-BET151] (top concentration 10000 nM) | -2.24 | -2.14 | -2.24 | 1.26 | -2.84 | 5.66 | 6.96 | 0.86 | 0.46 | -7.44 | 5.96 | 12.3 | -3.54 | 0.96 | 10.7 | 14.3 | 7.16 | 10.5 | 6.76 | 5.96
8 | O=C1CCc2c(Oc3ccc4c(c3)[C@@H]3[C@H](O4)[C@H]3c3nc4cc(C(F)(F)F)ccc4[nH]3)ccnc2N1 [Lifirafenib (BGB-283)] (top concentration 10000 nM) | 8.18 | 30 | 3.48 | 10.7 | 0.48 | 7.98 | 4.88 | 6.88 | 4.58 | 0.98 | 3.98 | 10.3 | 15.9 | 4.18 | -0.52 | 0.68 | 5.28 | 15.7 | 1.48 | 7.58
9 | NC(=O)N1CCC(CC(=O)N2CCC([C@H]3c4ncc(Br)cc4CCc4cc(Cl)cc(Br)c43)CC2)CC1 [Lonafarnib] (top concentration 100000 nM) | 10.1 | 9.34 | 8.04 | 5.94 | -3.96 | -1.56 | 9.24 | 3.04 | 14.1 | -1.06 | 11.2 | 8.64 | -3.36 | 9.74 | 7.04 | 4.54 | 7.84 | 14.1 | 2.24 | 7.44
10 | NC1(c2ccc(-c3nc4ccn5c(=O)[nH]nc5c4cc3-c3ccccc3)cc2)CCC1 [MK-2206] (top concentration 1000 nM) | 2.86 | 2.96 | 6.26 | -1.64 | -1.64 | -0.44 | 9.66 | -1.64 | -1.64 | 4.76 | 6.16 | 13.2 | 7.36 | 6.36 | 3.56 | 3.86 | 6.36 | 4.36 | -1.64 | 5.76
11 | O=C(Nc1cccc(NC(=O)c2cccc(O)c2O)c1)c1cccc(O)c1O [MST-312] (top concentration 10000 nM) | 13.1 | 9.6 | 7.4 | 9.4 | 3.7 | 1 | 10.8 | 1.1 | 5.8 | 6 | 17.3 | 0.7 | -3 | 7.1 | 12.8 | -4 | 8.1 | 0.6 | 9.8 | 1.8
12 | CC(=O)O[C@]1(C(C)=O)CC[C@H]2[C@@H]3C=C(C)C4=CC(=O)CC[C@]4(C)[C@H]3CC[C@@]21C [Megestrol_acetate] (top concentration 10000 nM) | -0.58 | -0.48 | 0.52 | 0.32 | -0.38 | -0.58 | 14.5 | 1.62 | 0.22 | 7.02 | 0.32 | 4.32 | 7.82 | -0.28 | 0.42 | 4.22 | 4.42 | 3.42 | -0.58 | 7.52
13 | CO[C@@H]1[C@H](N(C)C(=O)c2ccccc2)C[C@H]2O[C@]1(C)n1c3ccccc3c3c4c(c5c6ccccc6n2c5c31)C(=O)NC4 [Midostaurin] (top concentration 10000 nM) | 6.26 | 10.8 | 3.66 | 4.16 | -7.24 | 13.4 | 3.86 | -3.84 | 11.6 | 10.1 | 12.5 | 16.2 | 0.66 | 7.06 | 11.7 | -0.64 | 14.4 | 19.3 | -1.24 | 3.66
14 | CCCCCCCCCCCCCCCCOP(=O)([O-])OCC[N+](C)(C)C [Miltefosine] (top concentration 100000 nM) | 0.76 | 3.36 | 2.76 | 13.1 | 1.76 | -1.14 | 6.96 | -1.54 | 0.76 | -1.54 | -1.34 | 3.16 | -1.64 | -0.04 | 2.76 | -2.94 | 2.26 | 4.36 | 3.26 | -1.34
15 | Nc1ccccc1NC(=O)c1ccc(CNc2nccc(-c3cccnc3)n2)cc1 [Mocetinostat] (top concentration 10000 nM) | 7.04 | 9.14 | 3.94 | 9.24 | -8.46 | 6.74 | 7.74 | 2.74 | 9.14 | 15.5 | 9.04 | 9.54 | 1.44 | 5.54 | 14.7 | 12.4 | 7.54 | 9.04 | 1.34 | 8.04
16 | CCNC(=O)C[C@@H]1N=C(c2ccc(Cl)cc2)c2cc(OC)ccc2-n2c(C)nnc21 [Molibresib] (top concentration 10000 nM) | -2.4 | -3.3 | 0.8 | -3 | -6.2 | 5.3 | 8.4 | -2.1 | -2.1 | -5.5 | 4.9 | 7.7 | 5.2 | 0.8 | 6.9 | 16.7 | 6.4 | 7.7 | 6.3 | 6.9
17 | Nc1ncnc2c1c(-c1cccc(OCc3ccccc3)c1)cn2[C@H]1C[C@@H](CN2CCC2)C1 [NVP-AEW541] (top concentration 10000 nM) | -1.52 | 4.58 | 0.88 | 0.38 | -6.02 | 3.58 | 3.28 | 2.48 | -1.62 | 4.48 | -2.92 | 1.18 | -7.62 | -2.42 | 5.08 | -7.62 | -2.02 | 1.38 | -3.22 | 0.08
18 | CN[C@@H](C)C(=O)N[C@H](C(=O)N1CCC[C@H]1c1nc(C(=O)c2ccc(F)cc2)cs1)C1CCCCC1 [NVP-LCL161] (top concentration 25000 nM) | 2.38 | 0.08 | 2.38 | -2.72 | -5.82 | -3.52 | 3.98 | 6.58 | -3.52 | -5.02 | -1.62 | -0.52 | -1.92 | 1.18 | -2.32 | -3.22 | -1.12 | -0.22 | -5.72 | 1.58
